This experiment has as its system MV-4-11 cells. In words: Gene expression microarray analysis (Affymetrix PrimeView) and GSEA. The following applies: gene VPS36; ACY-1035 1 mM; LIST F. Format: cell-based, human.

As to `Nc1ccc(-c2cccs2)cc1NC(=O)c1ccc2c(c1)cc(C1CC1)n2CCN1CCOCC1` [ACY-1035], the “RFU, VPS36 (ProbeSet 11739960_a_at)” value came out at 54.57 RFU.

The record behind these values is article PMC5218480 (PLoS ONE, 2017).
